Results from US10517889B2, “Modulators of SMAD7 expression” (Ionis Pharmaceuticals, Inc., priority 2017, dated 2019).
Strand notation (5' to 3'): a small letter for the sugar, then the base; units joined by * are phosphorothioate-linked, units joined directly phosphodiester-linked; [ ] holds rarer units or linkages, { } end groups; capitals alone tell only the bases. e = 2'-O-(2-methoxyethyl) (MOE); [5mC] = 5-methylcytosine; d = 2'-deoxy (DNA)

Test system: human SMAD7 mRNA
Test: Antisense inhibition of human SMAD7 mRNA expression in Hep3B cells by 5-10-5 MOE gapmers, single concentration, electroporation, RT-PCR (Example 1, Study 1 and 2)
Format: cell-based
In short: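 Hep3B cells (20,000/well) electroporated with 5-10-5 MOE gapmer at 5,000 nM or 15,000 nM for approximately 24 h. SMAD7 mRNA quantified by real-time PCR with primer probe set RTS5062 and normalized to RIBOGREEN total RNA. Values are percent inhibition relative to untreated controls.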

[1] = Study 2, electroporation with 15,000 nM antisense oligonucleotide, 5-10-5 MOE gapmers targeting SEQ ID NO: 1 and 2
[2] = electroporation with 15,000 nM antisense oligonucleotide (Study 2), 5-10-5 MOE gapmers targeting SEQ ID NO: 1 and 2
[3] = electroporation, 15,000 nM antisense oligonucleotide (Study 2), 5-10-5 MOE gapmers targeting SEQ ID NO: 1 and 2
[4] = electroporation, 5,000 nM, approximately 24 hours, relative to untreated control cells, gapmers targeting SEQ ID NO: 1 and 2
[5] = electroporation, 15,000 nM, approximately 24 hours, relative to untreated control cells, gapmers targeting SEQ ID NO: 1 and 2

771764 (antisense eA*e[5mC]*eA*e[5mC]*eT*dT*d[5mC]*dA*d[5mC]*dA*d[5mC]*dA*d[5mC]*d[5mC]*dA*eA*eA*eG*e[5mC]*eA) [compound 771764]
% Inhibition [1]: 20%

771425 (e[5mC]*e[5mC]*eT*eT*eG*d[5mC]*d[5mC]*d[5mC]*dA*dG*dG*d[5mC]*dA*dG*d[5mC]*eA*eT*e[5mC]*e[5mC]*eA; antisense) [compound 771425]
% Inhibition of SMAD7 mRNA [2]: 15%
% inhibition of SMAD7 mRNA expression [3]: 1%

771374 (antisense eA*eG*e[5mC]*eA*eT*dG*dA*dA*dA*dG*dA*d[5mC]*dA*dA*dA*e[5mC]*e[5mC]*eA*e[5mC]*eA) [compound 771374]
% Inhibition [1]: 51%
% inhibition of SMAD7 mRNA expression [4]: 44%

771600 (antisense eT*eG*eG*e[5mC]*e[5mC]*dA*dA*dA*dA*dA*dA*dG*dA*dA*dA*eG*eA*e[5mC]*eG*e[5mC]) [compound 771600]
% Inhibition of SMAD7 mRNA [2]: 11%
% inhibition of SMAD7 mRNA expression [3]: 0%

771649 (antisense eA*eA*eG*eT*eA*dT*d[5mC]*dA*dT*dA*d[5mC]*dG*dA*dG*dT*eG*eT*eA*eT*eG) [compound 771649]
% inhibition of SMAD7 mRNA expression [2]: 0%

771806 (antisense eA*e[5mC]*eA*eA*eT*dG*dA*dA*dT*dA*dA*dT*dT*dG*dT*eT*e[5mC]*eA*e[5mC]*eG) [compound 771806]
% Inhibition [1]: 0%

771469 (antisense eT*eT*e[5mC]*eT*eG*d[5mC]*dA*d[5mC]*d[5mC]*dA*dG*d[5mC]*dT*dG*dA*e[5mC]*eT*e[5mC]*eT*eT) [compound 771469]
% inhibition of SMAD7 mRNA expression [1]: 13%

771543 (antisense e[5mC]*e[5mC]*e[5mC]*e[5mC]*eA*dA*d[5mC]*dA*dA*dT*dT*d[5mC]*dT*dT*dT*eT*e[5mC]*eA*eT*eA) [compound 771543]
% inhibition of SMAD7 mRNA expression [1]: 36%

771432 (e[5mC]*eA*eG*eT*eT*dT*d[5mC]*dT*dT*dG*dA*dG*d[5mC]*dA*d[5mC]*e[5mC]*eG*eA*eG*eT; antisense) [compound 771432]
% Inhibition [1]: 28%

771768 (antisense eG*eT*eA*eT*eG*d[5mC]*dT*dT*dG*dG*dG*dA*dT*d[5mC]*dT*eG*eT*e[5mC]*eT*eT) [compound 771768]
% Inhibition of SMAD7 mRNA [2]: 24%
% inhibition of SMAD7 mRNA expression [3]: 11%

771664 (antisense eT*eA*eA*eA*eT*dT*dT*d[5mC]*d[5mC]*dA*dA*dT*dG*dA*dG*eA*eA*eT*eG*e[5mC]) [compound 771664]
% Inhibition of SMAD7 mRNA [2]: 25%
% inhibition of SMAD7 mRNA expression [2]: 5%

771685 (antisense e[5mC]*eT*eT*eT*eT*dT*dT*dA*dA*dT*dT*dT*dG*dG*d[5mC]*eA*eT*eT*eT*eG) [compound 771685]
% inhibition of SMAD7 mRNA expression [5]: 17%

771803 (antisense eA*eT*eG*eG*eA*dT*dA*d[5mC]*dT*dG*dA*d[5mC]*dT*d[5mC]*dA*eA*eG*eG*eA*e[5mC]) [compound 771803]
% Inhibition [1]: 39%
% inhibition of SMAD7 mRNA expression [4]: 22%

771921 (antisense eT*e[5mC]*e[5mC]*eT*e[5mC]*d[5mC]*d[5mC]*dT*dT*dT*dA*dA*dA*dG*dG*eG*eA*eA*eG*eG) [compound 771921]
% inhibition of SMAD7 mRNA expression [3]: 14%

771835 (antisense eA*eG*eT*eA*eA*dA*dA*dT*dG*dG*dG*dA*dA*dA*dT*eA*eA*eG*eG*e[5mC]) [compound 771835]
% Inhibition [1]: 5%
% inhibition of SMAD7 mRNA expression [4]: 17%

771519 (antisense eA*eA*eA*eG*e[5mC]*dA*dA*dG*d[5mC]*dA*d[5mC]*dT*d[5mC]*dA*dG*eG*eA*eG*eG*eA) [compound 771519]
% inhibition of SMAD7 mRNA expression [1]: 25%

771676 (antisense eT*eG*eT*eT*eT*dA*dT*dA*d[5mC]*dA*d[5mC]*dA*dT*dT*dG*e[5mC]*eA*e[5mC]*eA*eA) [compound 771676]
% inhibition of SMAD7 mRNA expression [1]: 2%

771879 (antisense eA*eG*eG*eA*e[5mC]*d[5mC]*d[5mC]*dA*dA*dA*dG*dG*d[5mC]*dA*dG*eA*e[5mC]*e[5mC]*e[5mC]*eT) [compound 771879]
% Inhibition [1]: 23%

771851 (antisense eG*e[5mC]*eT*eT*eT*dG*dA*dA*dA*dA*d[5mC]*dA*dT*d[5mC]*d[5mC]*e[5mC]*eA*e[5mC]*eT*eT) [compound 771851]
% Inhibition [1]: 43%
% inhibition of SMAD7 mRNA expression [4]: 25%

771431 (eG*e[5mC]*e[5mC]*e[5mC]*e[5mC]*d[5mC]*dG*dG*d[5mC]*d[5mC]*dG*d[5mC]*dG*d[5mC]*d[5mC]*eG*eG*e[5mC]*eG*e[5mC]; antisense) [compound 771431]
% Inhibition [1]: 37%

771856 (antisense e[5mC]*eT*eG*eA*eA*dA*dG*dA*dA*dA*dG*dT*d[5mC]*d[5mC]*d[5mC]*eG*eA*e[5mC]*eT*eT) [compound 771856]
% Inhibition of SMAD7 mRNA [2]: 35%
% inhibition of SMAD7 mRNA expression [3]: 34%

771389 (antisense e[5mC]*eA*e[5mC]*e[5mC]*e[5mC]*d[5mC]*dG*d[5mC]*dG*d[5mC]*dG*dG*d[5mC]*d[5mC]*d[5mC]*eG*e[5mC]*eG*e[5mC]*e[5mC]) [compound 771389]
% inhibition of SMAD7 mRNA expression [3]: 18%

771712 (antisense eA*eT*eT*e[5mC]*eT*dT*dT*dT*dA*dG*d[5mC]*d[5mC]*d[5mC]*dA*dA*e[5mC]*eT*eG*eT*eT) [compound 771712]
% Inhibition of SMAD7 mRNA [2]: 27%
% inhibition of SMAD7 mRNA expression [3]: 3%

771428 (eT*eG*eG*e[5mC]*eA*d[5mC]*d[5mC]*dT*d[5mC]*dG*d[5mC]*dA*d[5mC]*d[5mC]*dG*e[5mC]*e[5mC]*eT*eT*eG; antisense) [compound 771428]
% Inhibition [1]: 47%
% inhibition of SMAD7 mRNA expression [4]: 0%

771358 (antisense eA*eG*eT*eT*eA*dA*dT*d[5mC]*dA*dT*dT*dA*d[5mC]*dT*d[5mC]*eG*eA*eG*eT*e[5mC]) [compound 771358]
% Inhibition [1]: 36%
% inhibition of SMAD7 mRNA expression [4]: 53%

771920 (antisense eT*eT*eA*eT*eT*dT*dA*dA*dT*dT*dA*d[5mC]*d[5mC]*d[5mC]*dT*eG*e[5mC]*eT*e[5mC]*eA) [compound 771920]
% Inhibition of SMAD7 mRNA [2]: 33%
% inhibition of SMAD7 mRNA expression [3]: 13%

771445 (eA*e[5mC]*eA*eG*e[5mC]*d[5mC]*dT*d[5mC]*dT*dT*dG*dA*d[5mC]*dT*dT*e[5mC]*e[5mC]*eG*eA*eG; antisense) [compound 771445]
% Inhibition [1]: 10%

771787 (antisense eA*eA*eG*eA*eA*dG*dA*dA*dG*dG*dA*dG*d[5mC]*dT*d[5mC]*eA*eA*eA*e[5mC]*eT) [compound 771787]
% Inhibition [1]: 27%
% inhibition of SMAD7 mRNA expression [4]: 0%

771916 (antisense e[5mC]*e[5mC]*eT*eT*e[5mC]*dT*dT*dA*dA*dA*dT*dT*dT*dT*dT*eA*eA*eT*eT*eT) [compound 771916]
% Inhibition [1]: 0%

771735 (antisense eT*eG*eG*eG*eT*d[5mC]*d[5mC]*d[5mC]*dT*d[5mC]*dA*dA*dG*dA*dG*e[5mC]*eT*e[5mC]*eA*e[5mC]) [compound 771735]
% Inhibition [1]: 38%

771927 (antisense eG*e[5mC]*e[5mC]*e[5mC]*eA*d[5mC]*dA*dG*d[5mC]*d[5mC]*d[5mC]*dA*d[5mC]*dA*d[5mC]*eG*eA*eG*eT*e[5mC]) [compound 771927]
% Inhibition [1]: 0%

771588 (antisense eA*eG*eG*e[5mC]*e[5mC]*d[5mC]*dG*dT*dG*dT*d[5mC]*d[5mC]*dT*dT*dG*eA*eT*eG*eA*eG) [compound 771588]
% inhibition of SMAD7 mRNA expression [1]: 13%

771395 (antisense eG*e[5mC]*eG*e[5mC]*eT*d[5mC]*d[5mC]*dG*dG*d[5mC]*dT*dG*d[5mC]*d[5mC]*d[5mC]*e[5mC]*eA*e[5mC]*e[5mC]*e[5mC]) [compound 771395]
% Inhibition of SMAD7 mRNA [2]: 34%
% inhibition of SMAD7 mRNA expression [3]: 0%

771843 (antisense e[5mC]*eG*e[5mC]*e[5mC]*eG*dG*d[5mC]*d[5mC]*d[5mC]*dA*d[5mC]*d[5mC]*dA*dA*d[5mC]*e[5mC]*eT*e[5mC]*eT*eG) [compound 771843]
% Inhibition [1]: 17%
% inhibition of SMAD7 mRNA expression [4]: 19%

771926 (antisense eA*e[5mC]*eA*eA*eA*dG*dG*dT*d[5mC]*dT*dG*dT*dG*dT*dG*eG*eA*e[5mC]*eG*e[5mC]) [compound 771926]
% Inhibition [1]: 13%

771932 (antisense e[5mC]*eG*eA*eG*eG*dT*dG*d[5mC]*d[5mC]*d[5mC]*d[5mC]*d[5mC]*dA*dT*dG*e[5mC]*e[5mC]*eA*eG*eG) [compound 771932]
% Inhibition [1]: 13%

771763 (antisense e[5mC]*e[5mC]*e[5mC]*e[5mC]*eG*dT*d[5mC]*d[5mC]*dA*d[5mC]*dG*dG*dA*dA*d[5mC]*eG*eG*eA*eT*e[5mC]) [compound 771763]
% Inhibition [1]: 45%
% inhibition of SMAD7 mRNA expression [4]: 34%

771470 (antisense eG*e[5mC]*eA*e[5mC]*e[5mC]*dT*dT*d[5mC]*dT*dG*d[5mC]*dA*d[5mC]*d[5mC]*dA*eG*e[5mC]*eT*eG*eA) [compound 771470]
% inhibition of SMAD7 mRNA expression [5]: 56%

771528 (antisense eA*eA*eA*eG*eA*dG*dT*dT*dT*dG*d[5mC]*dA*dT*dG*dA*eA*eA*eA*eG*e[5mC]) [compound 771528]
% Inhibition of SMAD7 mRNA [2]: 12%
% inhibition of SMAD7 mRNA expression [3]: 4%

771499 (antisense eG*e[5mC]*eT*eA*e[5mC]*d[5mC]*dG*dG*d[5mC]*dT*dG*dT*dT*dG*dA*eA*eG*eA*eT*eG) [compound 771499]
% inhibition of SMAD7 mRNA expression [3]: 1%

771377 (antisense eT*eA*eA*eG*e[5mC]*dA*d[5mC]*dG*d[5mC]*dT*d[5mC]*dT*dA*dA*dA*e[5mC]*eA*eG*e[5mC]*eA) [compound 771377]
% Inhibition [1]: 0%
